Data on two molecules can be found in ChEMBL document CHEMBL4152183, “Anti-inflammatory effects of flavonoids in neurodegenerative disorders” (Eur J Med Chem, 2018).

By IC50 is commonly meant the point on the concentration scale where inhibition reaches its midpoint.

The subject of this test is BV-2. Put plainly: Antiinflammatory activity in mouse BV2 cells assessed as inhibition of LPS-induced nitric oxide production pretreated for 1 hr followed by LPS addition and measured after 24 hrs by Griess assay. The format is functional, cell-based. Background: Nitrite, measured by Griess reagent, commonly stands in for NO production.

Turning to `O=C(/C=C/c1ccc(O)c(O)c1)c1ccc(O)cc1O` [BUTEIN], the IC50 worked out at 10.9 µM.

With `O=c1c(O)c(-c2ccc(O)c(O)c2)oc2cc(O)ccc12` [FISETIN], the IC50 was 13.5 µM.
